Details: Liquid; for viscosity / mass density: 101.33 kPa; for viscosity: Capillary tube (Ostwald / Ubbelohde) method; for mass density: Pycnometric method; for vapor or sublimation pressure: Ebulliometric method (Recirculating still)

CCCCCCCCCCCCCCCC(=O)OCC(CC)CCCC (stereo unspecified) [2-ethylhexyl palmitate]
Details	mass density [kg/m3]	vapor or sublimation pressure [kPa]	viscosity [mPa·s]
298.15 K	855.1	–	11.78
303.15 K	851	–	10.01
308.15 K	847.9	–	8.28
313.15 K	844.5	–	7.16
318.15 K	840.9	–	6.26
323.15 K	837.4	–	5.64
328.15 K	834	–	4.94
333.15 K	830.3	–	4.41
338.15 K	826.7	–	3.94
343.15 K	823.3	–	3.55
348.15 K	820.1	–	3.24
353.15 K	816.8	–	2.94
358.15 K	813.2	–	2.71
363.15 K	810	–	2.49
368.15 K	806.9	–	2.29
476.95 K	–	0.307	–
479.35 K	–	0.333	–
482.35 K	–	0.387	–
484.95 K	–	0.427	–
488.05 K	–	0.493	–
490.35 K	–	0.547	–
491.45 K	–	0.573	–
493.85 K	–	0.627	–
496.05 K	–	0.68	–
497.35 K	–	0.733	–
499.35 K	–	0.8	–
500.85 K	–	0.853	–

CCCCCCCCCCCCCCCCCC(=O)OCC(CC)CCCC (stereo unspecified) [2-ethylhexyl stearate]
Details	mass density [kg/m3]	vapor or sublimation pressure [kPa]	viscosity [mPa·s]
298.15 K	855.4	–	15.04
303.15 K	851.4	–	12.55
308.15 K	847.9	–	10.62
313.15 K	844.9	–	9.06
318.15 K	841.1	–	7.84
323.15 K	837.7	–	6.81
328.15 K	834.4	–	6.04
333.15 K	831.1	–	5.34
338.15 K	827.8	–	4.79
343.15 K	824.5	–	4.36
348.15 K	821.1	–	3.92
353.15 K	817.2	–	3.58
358.15 K	814.2	–	3.27
363.15 K	811.2	–	3.02
368.15 K	808	–	2.8
477.05 K	–	0.213	–
479.65 K	–	0.253	–
482.25 K	–	0.28	–
483.45 K	–	0.307	–
485.25 K	–	0.333	–
487.55 K	–	0.373	–
488.85 K	–	0.4	–
491.25 K	–	0.44	–
493.25 K	–	0.493	–
495.25 K	–	0.547	–
496.25 K	–	0.573	–
498.05 K	–	0.613	–

CCCCCCCCCCCCCCCC(=O)OC [methyl hexadecanoate]
Details	vapor or sublimation pressure [kPa]
419.15 K	0.213
423.15 K	0.279
425.25 K	0.306
428.35 K	0.346
430.75 K	0.399
432.25 K	0.425
433.35 K	0.452
436.25 K	0.532
438.45 K	0.585
440.15 K	0.624
442.35 K	0.705
444.15 K	0.771

Source: the NIST ThermoML archive (doi:10.1016/j.jct.2018.10.012)
